# Test results taken from US20170157212A1, “CDK MODULATORS AND METHODS FOR THE TREATMENT OF CANCER” (Salk Institute for Biological Studies, priority 2015, published 2017).
# Entries after “also recorded” stand apart in the source; their conditions may differ.
# How the values were obtained:
# [1] = system: CDK12; assay: In vitro kinase assay: CDK12 phosphorylation of recombinant 4E-BP1 (S65, T70); format: biochemical, human; settings: reactions with CDK12 and mTORC1/Raptor, dose-dependent
# Excerpt: (A) CRIF1 and CDK12 have opposite effects on global RNAPII CTD-Ser2P levels in vivo. U2OS cells were transfected with indicated siRNAs for 48 hr, and RNAPII phosphorylation was monitored by immunoblot using phospho-specific CTD (Ser2P and Ser5P) antibodies. (B) Knockdown of CRIF1 up-regulates CHK1 expression and induction of p53. […] (C) Analysis of steady-state mRNA levels by qRT-PCR in extracts from U2OS cells exposed to control (CTL) or CRIF1-specific siRNAs, as indicated. (D) Depletion of CRIF1 enhances 4E-BP1 phosphorylation at S65 and T70 in vivo, as assessed by immunoblot using phospho-specific antibodies. (E) CRIF1 inhibits RNAPII CTD-Ser2 phosphorylation by CDK12 complexes in vitro. The human GST-CTD (52 repeat) protein was incubated in vitro with the affinity-purified HA-CDK12 kinase complex in the absence or presence of increasing levels of purified recombinant CRIF1, and analyzed by immunoblot with the indicated antisera. […] Analysis of GST-CTD Ser2 phosphorylation was carried out as described in (E), using the affinity-purified FLAG-CDK9 kinase. (G) CRIF1 inhibits 4E-BP1 phosphorylation by CDK12 in vitro. […] was monitored by immunoblot in the absence or in the presence of different levels of affinity-purified recombinant CRIF1. […]
# [2] = molecular target: T1, CDK2 (Homo sapiens, UniProt P24941); assay: Co-immunoprecipitation of CRIF1 with CDK2; format: binding
# T1 construct: endogenous in cells
# Excerpt: (§1) FIGS. 5A-5I. The Mitochondrial OX-PHOS Regulator, CRIF1, is a Novel Subunit of the Human CDK12 Kinase Complex. (A) Identification of CRIF1 as a near-stoichiometric subunit of the native CDK12 kinase complex. MudPIT analysis of CDK12 complexes from HEK293 cells that stably express HA-tagged full-length human CDK12. The HA-CDK12 complex was affinity-purified using anti-HA antibody and visualized by SDS-PAGE and silver-stain. (B) List of the identified proteins in the HA-CDK12 complex from (A). (C) Endogenous CRIF1 co-immunoprecipitates with native CDK12 in U2OS cell extracts. Shown is an immunoblot analysis of CRIF1, CCNK, and the chaperone proteins CDC37 and HSP90 in an anti-CDK12 immunoprecipitate. (D) CRIF1 is a specific subunit of the CDK12 complex. Native CRIF1 was immunoprecipitated from U2OS cells using an anti-CRIF1 antibody and analyzed by co-immunoprecipitation for association with various CDKs, as indicated. […] FLAG-CRIF1 proteins containing different C-terminal truncations were co-expressed with HA-CDK12 (aa 985-1490) and analyzed for binding by co-immunoprecipitation and immunoblot. […] Cell viability was analyzed after 72 hr. […] Expression of the mitochondrial MTCO-1 (COX1) protein was assessed using two different antisera. […] Each fraction (T; total, C:cytosolic, M:membrane/organelle, and N:nuclear) was analyzed by immunoblot using the indicated antibodies. […]
# [3] = molecular target: T2, CDK8 (Homo sapiens, UniProt P49336); assay: Co-immunoprecipitation of CRIF1 with CDK8; format: binding
# T2 construct: endogenous in cells
# Excerpt: as §1
# T2 sequence (P49336 whole entry): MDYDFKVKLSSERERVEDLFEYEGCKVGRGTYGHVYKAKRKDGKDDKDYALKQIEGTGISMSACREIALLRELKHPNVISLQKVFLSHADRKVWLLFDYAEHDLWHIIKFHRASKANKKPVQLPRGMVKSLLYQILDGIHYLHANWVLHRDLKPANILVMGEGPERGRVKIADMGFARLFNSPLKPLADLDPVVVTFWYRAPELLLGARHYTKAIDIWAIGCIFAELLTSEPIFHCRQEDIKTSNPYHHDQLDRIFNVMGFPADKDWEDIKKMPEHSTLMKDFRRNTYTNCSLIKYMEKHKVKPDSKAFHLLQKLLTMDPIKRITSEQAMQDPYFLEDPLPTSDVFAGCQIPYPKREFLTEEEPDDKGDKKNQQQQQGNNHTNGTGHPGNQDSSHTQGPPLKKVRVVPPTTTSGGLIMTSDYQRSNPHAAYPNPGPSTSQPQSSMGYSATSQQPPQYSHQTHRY
# Chain of CDK12 (Q9NYV4 whole entry): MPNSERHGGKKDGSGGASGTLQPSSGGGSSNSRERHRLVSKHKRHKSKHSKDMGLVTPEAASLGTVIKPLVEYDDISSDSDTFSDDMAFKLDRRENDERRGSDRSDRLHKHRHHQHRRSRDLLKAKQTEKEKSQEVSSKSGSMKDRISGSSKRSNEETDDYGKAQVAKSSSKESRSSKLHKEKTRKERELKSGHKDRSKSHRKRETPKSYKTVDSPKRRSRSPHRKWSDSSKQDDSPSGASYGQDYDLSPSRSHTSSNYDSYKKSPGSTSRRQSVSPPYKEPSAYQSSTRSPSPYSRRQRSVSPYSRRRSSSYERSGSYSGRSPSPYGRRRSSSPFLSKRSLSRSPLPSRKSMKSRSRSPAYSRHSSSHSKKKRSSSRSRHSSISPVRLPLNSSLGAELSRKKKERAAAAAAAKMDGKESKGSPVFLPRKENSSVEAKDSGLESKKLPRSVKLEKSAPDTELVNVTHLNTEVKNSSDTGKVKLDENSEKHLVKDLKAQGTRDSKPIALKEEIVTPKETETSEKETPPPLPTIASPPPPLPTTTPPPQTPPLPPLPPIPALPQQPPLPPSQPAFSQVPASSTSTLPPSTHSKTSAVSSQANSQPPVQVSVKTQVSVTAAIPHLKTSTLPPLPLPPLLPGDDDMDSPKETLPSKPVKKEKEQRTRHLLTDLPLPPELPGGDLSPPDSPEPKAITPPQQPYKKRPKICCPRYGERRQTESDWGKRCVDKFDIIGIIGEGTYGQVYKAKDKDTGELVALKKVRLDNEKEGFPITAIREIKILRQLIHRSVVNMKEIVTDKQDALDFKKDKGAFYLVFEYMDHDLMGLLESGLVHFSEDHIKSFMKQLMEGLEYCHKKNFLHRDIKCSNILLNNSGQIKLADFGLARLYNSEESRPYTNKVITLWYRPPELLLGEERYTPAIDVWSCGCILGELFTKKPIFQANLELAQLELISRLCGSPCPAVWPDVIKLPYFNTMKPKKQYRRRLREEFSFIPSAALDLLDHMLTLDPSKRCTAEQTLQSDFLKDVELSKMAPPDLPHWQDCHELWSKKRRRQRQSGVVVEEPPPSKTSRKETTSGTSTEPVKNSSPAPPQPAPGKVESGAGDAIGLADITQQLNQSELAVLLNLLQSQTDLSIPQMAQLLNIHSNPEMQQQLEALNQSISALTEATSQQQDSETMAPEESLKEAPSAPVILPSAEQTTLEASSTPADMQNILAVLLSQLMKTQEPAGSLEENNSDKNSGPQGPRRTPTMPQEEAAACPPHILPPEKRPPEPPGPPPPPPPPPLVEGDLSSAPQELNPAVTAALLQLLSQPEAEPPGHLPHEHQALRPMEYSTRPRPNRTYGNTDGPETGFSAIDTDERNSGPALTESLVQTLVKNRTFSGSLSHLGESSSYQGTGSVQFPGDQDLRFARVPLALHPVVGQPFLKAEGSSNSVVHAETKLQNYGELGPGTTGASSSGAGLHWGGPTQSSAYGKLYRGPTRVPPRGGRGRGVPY
# Chain of CDK12 (O75909 whole entry partner): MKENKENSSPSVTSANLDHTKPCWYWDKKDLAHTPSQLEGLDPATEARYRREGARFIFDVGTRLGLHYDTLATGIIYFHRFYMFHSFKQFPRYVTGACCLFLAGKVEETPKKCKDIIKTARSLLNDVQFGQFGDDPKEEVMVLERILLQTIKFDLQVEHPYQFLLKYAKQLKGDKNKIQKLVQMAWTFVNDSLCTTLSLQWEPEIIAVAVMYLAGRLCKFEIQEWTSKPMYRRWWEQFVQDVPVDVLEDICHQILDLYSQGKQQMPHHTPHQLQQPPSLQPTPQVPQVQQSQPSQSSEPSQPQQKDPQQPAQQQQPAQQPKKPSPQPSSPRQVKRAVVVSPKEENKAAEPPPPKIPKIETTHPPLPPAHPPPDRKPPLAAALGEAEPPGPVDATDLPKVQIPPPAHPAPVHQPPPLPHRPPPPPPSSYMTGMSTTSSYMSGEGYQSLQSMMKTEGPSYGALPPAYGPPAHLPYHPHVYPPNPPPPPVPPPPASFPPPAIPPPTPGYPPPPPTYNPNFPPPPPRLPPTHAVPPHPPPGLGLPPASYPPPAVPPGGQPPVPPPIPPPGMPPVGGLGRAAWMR
substance,measurement,setting,value
Growth Arrest and DNA Damage-Inducible Proteins-Interacting Protein 1 [CRIF1],S65 and T70 phosphorylation of 4E-BP1 by CDK12,[1],inhibits
same,S65 and T70 phosphorylation of 4E-BP1 by CDK12,[1]; listed as rCRIF1,potently and selectively inhibited
same,presence in / binding to CDK2 complexes,[2],not present; also recorded: nor was binding to Cdk2 detected
same,presence in / binding to CDK8 complexes,[3],not present; also recorded: does not bind
